Experimental data: the supplement of paper PMC10307832

Tests used:
Test in all cases: relative viability (nuclei count vs DMSO), 5 days (fraction); higher = more cells survive
[1] = compound: NCC(=O)Nc1ccc(-n2nc(C(F)(F)F)cc2-c2ccc3c(ccc4ccccc43)c2)cc1 + C[C@@H](Oc1cc(-c2cnn(C3CCNCC3)c2)cnc1N)c1c(Cl)ccc(F)c1Cl [Crizotinib] (partner 1 µM)
In short: (§1)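 Lung cancer cell lines in 1536-well plates got either a single drug or a fixed anchor-drug dose together with five library-drug doses (not always all listed) in √10 steps, by pin tool, on the day after seeding. Nuclei were counted after 5 days, and relative viability is the treated-to-vehicle ratio of nuclei counts. Values are medians of duplicate plates.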

[2] = compound: C1CSC2=C(C(=O)N1)SC3=C2C=C(C=C3)O [kb NB 142-70] + CC1(C)CCC(c2ccc(Cl)cc2)=C(CN2CCN(c3ccc(C(=O)NS(=O)(=O)c4ccc(N[C@H](CCN5CCOCC5)CSc5ccccc5)c(S(=O)(=O)C(F)(F)F)c4)cc3)CC2)C1 [Navitoclax] (partner 0.5 µM)
In short: as §1

[3] = compound: C1CSC2=C(C(=O)N1)SC3=C2C=C(C=C3)O [kb NB 142-70] + CC(=O)c1c(C)c2cnc(Nc3ccc(N4CCNCC4)cn3)nc2n(C2CCCC2)c1=O [Palbociclib] (partner 0.5 µM)
In short: as §1

[4] = compound: C1CSC2=C(C(=O)N1)SC3=C2C=C(C=C3)O [kb NB 142-70] + C[C@]1(O)C[C@@H](c2nc(-c3ccc4ccc(-c5ccccc5)nc4c3)c3c(N)nccn32)C1 [Linsitinib] (partner 1 µM)
In short: as §1

[5] = compound: C1CSC2=C(C(=O)N1)SC3=C2C=C(C=C3)O [kb NB 142-70] + C[C@@H](Oc1cc(-c2cnn(C3CCNCC3)c2)cnc1N)c1c(Cl)ccc(F)c1Cl [Crizotinib] (partner 1 µM)
In short: as §1

Row | Cell Line | relative viability ([1]; first compound 0.02 µM) | relative viability ([1]; first compound 0.06325 µM) | relative viability ([1]; first compound 0.2 µM) | relative viability ([1]; first compound 0.6325 µM) | relative viability ([1]; first compound 2 µM) | relative viability ([2]; first compound 0.1 µM) | relative viability ([2]; first compound 1 µM) | relative viability ([2]; first compound 3.162 µM) | relative viability ([3]; first compound 0.1 µM) | relative viability ([3]; first compound 1 µM) | relative viability ([3]; first compound 3.162 µM) | relative viability ([4]; first compound 0.1 µM) | relative viability ([4]; first compound 1 µM) | relative viability ([4]; first compound 3.162 µM) | relative viability ([5]; first compound 0.1 µM) | relative viability ([5]; first compound 1 µM) | relative viability ([5]; first compound 3.162 µM)
1 | PC-14 | 1.1 | 0.905 | 1.04 | 0.976 | 0.937 | 0.977 | 1.06 | 0.96 | 0.557 | 0.636 | 0.496 | 0.982 | 0.968 | 0.955 | 0.933 | 0.909 | 0.92
2 | RERF-LC-KJ | 0.867 | 0.845 | 0.847 | 0.791 | 0.809 | 1.05 | 0.762 | 0.468 | 1.1 | 1.18 | 0.983 | 0.918 | 0.957 | 0.923 | 0.819 | 0.93 | 0.924
3 | SK-LU-1 | 0.854 | 0.949 | 1.11 | 0.831 | 1.03 | 0.747 | 0.642 | 0.178 | 0.404 | 0.412 | 0.359 | 1.26 | 0.986 | 0.557 | 0.861 | 0.691 | 0.45
4 | SK-MES-1 | 1.04 | 0.994 | 1.04 | 0.979 | 1.03 | 1.21 | 1.27 | 0.658 | 0.343 | 0.424 | 0.402 | 1.07 | 1.15 | 0.722 | 1.01 | 1.02 | 0.72
5 | SW 1573 | 0.756 | 0.756 | 0.837 | 0.848 | 0.911 | 0.954 | 0.878 | 0.561 | 0.418 | 0.376 | 0.208 | 0.744 | 0.693 | 0.351 | 0.832 | 0.815 | 0.526
